Source: US20220220041A1, “USE OF UREA AS AN ANTIMICROBIAL ADDITIVE IN AN AQUEOUS SUSPENSION” (Omya International AG, priority 2019, published 2022)

Legend:
[1] = tested on: non-sterile calcium carbonate slurry (H60), environmental bacteria; assay: Example 4 preservation efficacy: H60 slurry with 61% (w/w) urea solution, non-sterile H60 inoculum, TVC; format: cell-based; details: 30° C.
Procedure: (§1) All quoted bacterial counts (Total viable counts (TVC) values), unless otherwise indicated, are given in cfu/ml and determined after at least 2 days following plate-out and incubation at 30° C. and in accordance with the counting method described in “Bestimmung von aerobe mesophilen Keimen”, Schweizerisches Lebensmittelbuch, chapter 56, section 7.01, edition of 1985, revised version of 1988.
(§2) Unless otherwise stated, per tryptic soy agar plate (TSA, prepared using BD 236950) 0.1 ml of a solution or suspension is plated. Counts from 10000 cfu/ml to 99999 cfu/ml are reported as >1E4 cfu/ml. Counts from 100000 cfu/ml to 999999 cfu/ml are reported as >1E5 cfu/ml. Counts above 1000000 cfu/ml are reported as >1E6 cfu/ml.
(§3) Non-sterile slurries (H60 or H90) contain contamination with environmental bacteria at a TVC>100000 cfu/ml. The contamination originates spontaneously and a bacterial burden of at least>100000 cfu/ml is confirmed prior use as inoculum by TVC. The following bacterial species are known to occur, as identified by 16S RNA sequencing or MALDI-TOF-MS analysis: Rhizobium radiobacter, Brevundimonas intermedia, Brevundimonas diminiuta, Sphingomonas sp., Pseudomonas stutzeri, Pseudomonas sp., Comomonas aquatic.
50 g sterile calcium carbonate slurry (H60) with a solid content of 78.3 wt.-%, based on the total weight of the H60 slurry are supplemented with 61% (w/w) urea solution to different final concentrations. The samples are inoculated with 1 ml non-sterile calcium carbonate slurry (H60). Samples are incubated at 30° C. and TVC and pH are determined at various time points (0 day, 1 day, 4, days, 11 days).

[2] = tested on: total viable bacteria, not inoculated; assay: Example 2 preservation efficacy: H60 slurry with 61 wt.-% urea solution, control samples not inoculated, TVC; format: cell-based; details: inoculum none, 30° C.
Procedure: as §1, §2
50 g sterile slurry H60 with a solid content of 76.5 wt.-%, based on the total weight of the H60 slurry is supplemented with different amounts of 61 wt.-% urea solution or water. The samples are then inoculated with 1 ml non-sterile calcium carbonate slurry (H60), 1 ml non-sterile calcium carbonate slurry (H90), 0.02 ml overnight culture of Escherichia coli (DSMZ 46295) and 0.02 ml overnight culture of Pseudomonas putida. The control samples are not inoculated. Samples are incubated at 30° C. and the TVC and pH are determined at various time points (0 day, 1 day, 4, days, 8 days, 9 days and/or 13 days).

[3] = pH measurement of the suspension; format: physicochemical; details: 30° C.; for pH Day 8: Table 2; for pH Day 4: Table 3; for pH Day 11: Table 5; for pH Day 16: industrial grade urea 5.5%, calcium carbonate 69%, water 25.5% w/w
Procedure: The pH of a suspension is measured at 25° C. using a Mettler Toledo Seven Easy pH meter and a Mettler Toledo InLab® Expert Pro pH electrode. A three point calibration (according to the segment method) of the instrument is first made using commercially available buffer solutions having pH values of 4, 7 and 10 at 20° C. (from Aldrich). The reported pH values are the endpoint values detected by the instrument (the endpoint is when the measured signal differs by less than 0.1 mV from the average over the last 6 s).

[4] = tested on: non-sterile calcium carbonate slurry (H90), environmental bacteria; assay: Example 3 preservation efficacy: H60 slurry with industrial grade urea solution, non-sterile H90 inoculum, TVC; format: cell-based; details: industrial grade urea 5.5%, calcium carbonate 69%, water 25.5% w/w, 30° C.
Procedure: as §1, §2, §3
(§4) 50 g sterile calcium carbonate slurry (H60) with a solid content of 77.3 wt.-%, based on the total weight of the H60 slurry is supplemented with industrial grade 50% (w/w) urea solution (Yara Canda Inc.) or water to different final concentrations. The industrial grade contained natural resident (i.e. bacteria in a non-growing state) bacteria. The bacterial of the industrial urea burden is 5 cfu/3 ml as determined by TVC. The species are identified by characterizing the grown colonies from the TVC by 16 S RNA sequencing, known to the person skilled in the art.
(§5) The samples are further artificially inoculated with 1 ml non-sterile calcium carbonate slurry (H60), 1 ml non-sterile calcium carbonate slurry (H90), 0.02 ml overnight culture of Escherichia coli (DSMZ 46295) and 0.02 ml overnight culture Pseudomonas putida. The control sample are not inoculated. […]

[5] = tested on: Escherichia coli (DSMZ 46295); assay: Example 3 preservation efficacy: H60 slurry with industrial grade urea solution, E. coli inoculum, TVC; format: cell-based; details: industrial grade urea 5.5%, calcium carbonate 69%, water 25.5% w/w, 30° C.
Procedure: as §1, §2
For the preparation of inoculum with a single bacterial species (for example Escherichia coli (DSMZ 46295) or Pseudomonas putida), bacteria are spread onto Tryptic soy broth agar (BD, 236950) by dilution streaking followed by incubation at 30° C. for at least 24 h until colonies appear. Overnight cultures are generated by inoculation of 3 ml Tryptic soy broth (Fluka 22092) with a single colony followed incubation with agitation at […] at 30° C. for 24 h.
as §4, §5

[6] = urea 0.40%, calcium carbonate 75.61%, water 23.99% w/w
[7] = urea 1.10%, calcium carbonate 75.48%, water 23.42% w/w
[8] = urea 2.80%, calcium carbonate 75.21%, water 21.98% w/w
[9] = Table 2, urea 2.75%, calcium carbonate 73.1%, water 24.15% w/w
[10] = Table 2, urea 7.6%, calcium carbonate 67.1%, water 25.3% w/w
[11] = Table 3, urea 1.28%, calcium carbonate 74.9%, water 23.82% w/w
[12] = Table 3, urea 2.75%, calcium carbonate 73.1%, water 24.15% w/w
[13] = urea 2.75%, calcium carbonate 73.1%, water 24.15% w/w, inoculum none

## NC(N)=O [urea]
[1]; [6]
  TVC cfu/ml Day 4: >1E5 cfu/ml
  TVC cfu/ml Day 11: >1E5 cfu/ml
[1]; urea 0.40%, calcium carbonate 75.61%, water 23.99% w/w, detection limit 100 cfu/ml
  TVC cfu/ml Day 1: >1E5 cfu/ml
[1]; [7]
  TVC cfu/ml Day 1: >1E5 cfu/ml
  TVC cfu/ml Day 4: >1E5 cfu/ml
  TVC cfu/ml Day 11: >1E5 cfu/ml
[1]; [8]
  TVC cfu/ml Day 1: >1E4 cfu/ml
  TVC cfu/ml Day 4: 600 cfu/ml
  TVC cfu/ml Day 11: <100 cfu/ml
[2]; [9]
  TVC cfu/ml Day 4: <100 cfu/ml
  TVC cfu/ml Day 8: <100 cfu/ml
  TVC cfu/ml Day 13: <100 cfu/ml
[2]; Table 2, urea 2.75%, calcium carbonate 73.1%, water 24.15% w/w, detection limit 100 cfu/ml
  TVC cfu/ml Day 1: <100 cfu/ml
[2]; [10]
  TVC cfu/ml Day 1: <100 cfu/ml
  TVC cfu/ml Day 4: <100 cfu/ml
  TVC cfu/ml Day 8: <100 cfu/ml
  TVC cfu/ml Day 13: <100 cfu/ml
[2]; Table 3, urea 0.65%, calcium carbonate 75.7%, water 23.65% w/w
  TVC cfu/ml Day 4: <100 cfu/ml
[2]; Table 3, urea 0.65%, calcium carbonate 75.7%, water 23.65% w/w, detection limit 100 cfu/ml
  TVC cfu/ml Day 1: <100 cfu/ml
[2]; [11]
  TVC cfu/ml Day 1: <100 cfu/ml
  TVC cfu/ml Day 4: <100 cfu/ml
[2]; [12]
  TVC cfu/ml Day 1: <100 cfu/ml
  TVC cfu/ml Day 4: <100 cfu/ml
  TVC cfu/ml Day 9: <100 cfu/ml
[3]; [13]
  pH Day 8: 9.16
  pH Day 4: 9.11
[3]; urea 7.6%, calcium carbonate 67.1%, water 25.3% w/w, inoculum none
  pH Day 8: 9.25
[3]; urea 0.65%, calcium carbonate 75.7%, water 23.65% w/w, inoculum none
  pH Day 4: 9.06
[3]; urea 1.28%, calcium carbonate 74.9%, water 23.82% w/w, inoculum none
  pH Day 4: 9.05
[3]; urea 0.40%, calcium carbonate 75.61%, water 23.99% w/w, inoculum H60
  pH Day 11: 9.05
[3]; urea 1.10%, calcium carbonate 75.48%, water 23.42% w/w, inoculum H60
  pH Day 11: 9.25
[3]; urea 2.80%, calcium carbonate 75.21%, water 21.98% w/w, inoculum H60
  pH Day 11: 9.10
[3]; inoculum E. coli
  pH Day 16: 9.02
[3]; inoculum H60
  pH Day 16: 9.00
[3]; inoculum H90
  pH Day 16: 8.97
[3]; inoculum P. putida
  pH Day 16: 9.04
[3]; inoculum none
  pH Day 16: 9.02
[4]
  TVC cfu/ml Day 1: >1E4 cfu/ml
  TVC cfu/ml Day 4: 300 cfu/ml
  TVC cfu/ml Day 8: <100 cfu/ml
  TVC cfu/ml Day 11: <100 cfu/ml
  TVC cfu/ml Day 13: <100 cfu/ml
[5]
  TVC cfu/ml Day 1: <100 cfu/ml
  TVC cfu/ml Day 4: <100 cfu/ml
  TVC cfu/ml Day 8: <100 cfu/ml
  TVC cfu/ml Day 11: <100 cfu/ml
  TVC cfu/ml Day 13: <100 cfu/ml
